Read-outs that look alike come from different tables or passages of the source.
Tests used:
Assay type in all cases: cell-based
[1] = tested on: Human Monocytic Leukemia MV4-11; test: Cell proliferation experiment (Alarm blue, 72 h, EC50); settings: Homo sapiens, MV4-11, MV4;11 cells
Procedure, shortened: (§1)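 Log-phase cells, passaged at least 2 generations, were seeded in 96-well plates and exposed to test compound in complete medium as a 5-fold dilution series in duplicate for 72 h. Fluorescence was read by Alamar blue and EC50 fitted to a four-parameter curve (Min, Max, Slope).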

[2] = tested on: Human Small Cell Lung Cancer NCI-H82; test: as above; settings: Homo sapiens, NCI-H82; NCIH82 cells
Procedure, shortened: as §1

[3] = tested on: Human Colon Cancer HCT-116; test: as above; settings: HCT116 cells
Procedure, shortened: as §1

[4] = tested on: Human cervical adenocarcinoma cells Hela; test: as above
Procedure, shortened: as §1

[5] = tested on: Human Glioma Cells U-87 MG; test: as above; settings: Homo sapiens; U-87MG cells
Procedure, shortened: as §1

[6] = tested on: Human Breast Cancer MDA-MB-231; test: as above; settings: MDA-MB-231 cells
Procedure, shortened: as §1

[7] = tested on: Human Monocytic Leukemia THP-1; test: as above; settings: THP-1 cells
Procedure, shortened: as §1

[8] = tested on: Human Acute Myelomonocytic Leukemia HL-60; test: as above; settings: HL-60 cells
Procedure, shortened: as §1

Human Colon Cancer HT-29 = test: as above; settings: HT-29 cells
Procedure, shortened: as §1

PLK1 = target: T1, PLK1 (Homo sapiens, UniProt P53350); test: Western blot, protein degradation (DC50)
T1 construct: endogenous in cells
T1 sequence (P53350 whole entry): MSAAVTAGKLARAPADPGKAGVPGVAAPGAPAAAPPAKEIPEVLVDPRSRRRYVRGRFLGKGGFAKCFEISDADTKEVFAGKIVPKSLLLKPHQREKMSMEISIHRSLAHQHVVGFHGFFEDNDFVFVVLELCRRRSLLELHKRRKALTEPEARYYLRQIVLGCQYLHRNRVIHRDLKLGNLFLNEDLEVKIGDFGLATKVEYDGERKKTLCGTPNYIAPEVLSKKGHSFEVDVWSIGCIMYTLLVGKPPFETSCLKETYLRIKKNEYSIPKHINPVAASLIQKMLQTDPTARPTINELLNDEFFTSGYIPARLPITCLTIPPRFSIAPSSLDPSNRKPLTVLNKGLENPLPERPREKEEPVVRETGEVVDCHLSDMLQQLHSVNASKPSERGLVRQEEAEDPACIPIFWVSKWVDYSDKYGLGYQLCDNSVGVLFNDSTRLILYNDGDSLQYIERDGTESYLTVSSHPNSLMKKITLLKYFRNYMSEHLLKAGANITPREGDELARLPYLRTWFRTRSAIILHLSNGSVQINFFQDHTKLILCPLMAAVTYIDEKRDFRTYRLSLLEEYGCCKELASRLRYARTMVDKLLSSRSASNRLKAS
Protocol: (§2) Cells were treated with the compound for a period of time, after that the cells were collected by centrifugation. After washing with PBS, the cells were lysed by adding RIPA buffer; the cell lysate were added to the loading buffer and then appropriate volume were taken and slowly added to the corresponding wells of the gel plate, and run the SDS-PAGE gel (4%-12%). After running the gel, transferred to the PVDF membrane and sealed with 5% skimmed milk powder at room temperature for 1 hour. The membrane was placed in the primary antibody diluted with 5% skimmed milk powder and shaked slowly overnight at 4° C. After incubation with primary antibody, the membrane was washed 3 times using a TBST shaker; added secondary antibody diluted with 5% skimmed milk powder corresponding to the primary antibody, and shaked slowly at room temperature for 1 hour. After incubation with secondary antibody, the membrane was washed 3 times using the TBST shaker again. The PVDF membrane was flatted in the cassette, the strip was evenly infiltrated with ECL developer solution, and placed in ChemDoc XRS+ gel imager for taking pictures. The intensity of protein bands was analyzed quantitatively using ImageJ software.

BRD4 = target: T2, BRD4 (Homo sapiens, UniProt O60885); test: Western blot, protein degradation (DC50)
T2 construct: endogenous in cells
Protocol: as §2

| SMILES | EC50 [1] | EC50 [2] | EC50 ([3]; Homo sapiens, HCT-116) | EC50 [8] | EC50 (Human Colon Cancer HT-29; Homo sapiens) | also measured |
| --- | --- | --- | --- | --- | --- | --- |
| CC[C@@H]1C(=O)N(C)c2cnc(Nc3ccc(C(=O)NCCOCCNCCCCCC(=O)Nc4cccc5c4CN(C4CCC(=O)NC4=O)C5=O)cc3OC)nc2N1Cc1ccc(Br)cc1 (stereo partly shown) [UB-180643] | 10 to 100 nM | > 1000 nM | 100 to 1000 nM |  |  |  |
| CC[C@@H]1C(=O)N(C)c2cnc(Nc3ccc(C(=O)NCCOCCOCCOCCNCCCCCC(=O)Nc4cccc5c4CN(C4CCC(=O)NC4=O)C5=O)cc3OC)nc2N1Cc1ccc(Br)cc1 (stereo partly shown) [UB-180644] | 10 to 100 nM | > 1000 nM | > 1000 nM |  |  |  |
| CC[C@@H]1C(=O)N(C)c2cnc(Nc3ccc(C(=O)NCCOCCNCCCCC(=O)Nc4cccc5c4CN(C4CCC(=O)NC4=O)C5=O)cc3OC)nc2N1Cc1ccc(Br)cc1 (stereo partly shown) [UB-180645] | 10 to 100 nM | > 1000 nM | 100 to 1000 nM |  |  |  |
| CC[C@@H]1C(=O)N(C)c2cnc(Nc3ccc(C(=O)NCCCNCCCCC(=O)Nc4cccc5c4CN(C4CCC(=O)NC4=O)C5=O)cc3OC)nc2N1C1CCCC1 (stereo partly shown) [UB-180658] | 10 to 100 nM | > 1000 nM | 100 to 1000 nM | 100 to 1000 nM | 100 to 1000 nM | EC50 ([4]; Homo sapiens): 100 to 1000 nM; EC50 [5]: 100 to 1000 nM; EC50 ([6]; Homo sapiens): 100 to 1000 nM; EC50 [7]: 100 to 1000 nM; DC50 (PLK1; 6 h, western blot, read-out: PLK1 DC50 (6 h)): 10 to 100 nM; DC50 (BRD4; 6 h, western blot, read-out: BRD4 DC50 (6 h)): 10 to 100 nM |
| CC[C@@H]1C(=O)N(C)c2cnc(Nc3ccc(C(=O)NCc4cn(CCNCC(=O)Nc5cccc6c5CN(C5CCC(=O)NC5=O)C6=O)nn4)cc3OC)nc2N1C1CCCC1 (stereo partly shown) [UB-180691] | 10 to 100 nM |  |  |  | 100 to 1000 nM |  |
| CC[C@@H]1C(=O)N(C)c2cnc(Nc3ccc(C(=O)NCc4cn(CCOCCNCCC(=O)Nc5cccc6c5CN(C5CCC(=O)NC5=O)C6=O)nn4)cc3OC)nc2N1C1CCCC1 (stereo partly shown) [UB-180707] | 10 to 100 nM |  |  |  | 100 to 1000 nM |  |
| CC[C@@H]1C(=O)N(C)c2cnc(Nc3ccc(C(=O)NCc4cn(CCNCCOCC(=O)Nc5cccc6c5CN(C5CCC(=O)NC5=O)C6=O)nn4)cc3OC)nc2N1C1CCCC1 (stereo partly shown) [UB-180719] | 10 to 100 nM |  |  |  | 100 to 1000 nM | DC50 (PLK1; 6 h, read-out: PLK1 DC50 (nM) (6 h)): 10 to 100 nM; DC50 (PLK1; 24 h, read-out: PLK1 DC50 (nM) (24 h)): < 10 nM; DC50 (BRD4; 6 h, read-out: BRD4 DC50 (nM) (6 h)): < 10 nM; DC50 (BRD4; 24 h, read-out: BRD4 DC50 (nM) (24 h)): < 10 nM |
| O=C1CCC(N2Cc3c(NC(=O)CNCCOCCOCCOCCNC(=O)c4ccc(Nc5ncc6c(n5)-c5ccc(Cl)cc5C(c5c(F)cccc5F)=NC6)cc4)cccc3C2=O)C(=O)N1 (stereo not shown) [UB-180727] | 100 to 1000 nM |  |  | > 1000 nM |  |  |
| O=C1CCC(N2Cc3c(NC(=O)CNCCOCCOCCOCCOCCNC(=O)c4ccc(Nc5ncc6c(n5)-c5ccc(Cl)cc5C(c5c(F)cccc5F)=NC6)cc4)cccc3C2=O)C(=O)N1 (stereo not shown) [UB-180801] | 100 to 1000 nM |  |  | > 1000 nM |  |  |
| O=C1CCC(N2Cc3c(NC(=O)CNCCOCCOCCOCCOCCNC(=O)[C@]4(Cc5cccc(Nc6nccs6)n5)CC[C@@H](Oc5cccc(Cl)c5F)CC4)cccc3C2=O)C(=O)N1 (stereo partly shown) [UB-180802] | 100 to 1000 nM |  | 100 to 1000 nM | > 1000 nM |  | DC50 (PLK1; 6 h, read-out: PLK1 DC50 (6 h)): < 10 nM |
| CC[C@@H]1C(=O)N(C)c2cnc(Nc3ccc(C(=O)NC4CCN(CCOCCN(CC(=O)Nc5cccc6c5CN(C5CCC(=O)NC5=O)C6=O)C(=O)OC(C)C(C)SSC[C@@H](NC(=O)[C@@H](CC(=O)O)NC(=O)[C@@H](CC(=O)O)NC(=O)[C@@H](CCCNC(=N)N)NC(=O)[C@@H](CC(=O)O)NC(=O)CC[C@H](NC(=O)c5ccc(NCc6cnc7nc(N)[nH]c(=O)c7n6)cc5)C(=O)O)C(=O)O)CC4)cc3OC)nc2N1C1CCCC1 (stereo partly shown) [UB-180838] |  |  |  |  |  | EC50 [4]: 100 to 1000 nM; EC50 [6]: 100 to 1000 nM; EC50 [3]: 100 to 1000 nM; EC50 (Human Colon Cancer HT-29): 100 to 1000 nM |
| CC(OC(=O)N(CCOCCOCCOCCNC(=O)[C@]1(Cc2cccc(Nc3nccs3)n2)CC[C@@H](Oc2cccc(Cl)c2F)CC1)CC(=O)Nc1cccc2c1CN(C1CCC(=O)NC1=O)C2=O)C(C)SSC[C@H](NC(=O)[C@@H](CC(=O)O)NC(=O)[C@@H](CC(=O)O)NC(=O)[C@@H](CCCNC(=N)N)NC(=O)[C@@H](CC(=O)O)NC(=O)CC[C@H](NC(=O)c1ccc(NCc2cnc3nc(N)[nH]c(=O)c3n2)cc1)C(=O)O)C(=O)O (stereo partly shown) [UB-180839] |  |  |  |  |  | EC50 [4]: 100 to 1000 nM; EC50 [6]: 100 to 1000 nM; EC50 [3]: 100 to 1000 nM; EC50 (Human Colon Cancer HT-29): 100 to 1000 nM |

Reference: patent US20210369853A1, “TARGETED PROTEASE DEGRADATION PLATFORM” (EUBULUS BIOTHERAPEUTICS INC., priority 2018, published 2021)
